Experimental findings from patent US6777190B1, “Crosstalk inhibitors and their uses” (Biosite, Inc., priority 1991, dated 2004) are described below.

The assay has as its system monoclonal antibodies to morphine (morp Ab). As to the kind of experiment: Crosstalk inhibitor test: colloidal gold ligand analogue conjugate binding at the morp Ab zone of a nylon membrane (color density DE*). As to conditions: 5 μl (1.1 μmol) inhibitor, Table 3 #6 vs #1.

For the compound `O=C(O)CCCCCNC(=O)C1CCC(CN2C(=O)CC(SCCC(=O)O)C2=O)CC1` (stereo not shown) [CCM-MPA], the “decrease of the morphine response” value is listed as “about 30%”.
